{
  "source": "patent US8546357B2",
  "about": "“Boron-containing small molecules for controlling ectoparasites” (priority 2011, dated 2013)",
  "key": {"[1]": {"system": "adult American dog tick (Dermacentor variabilis)", "experiment": "Therapeutic (knockdown) and residual efficacy against adult American dog tick infestations on dogs, oral", "type": "in vivo", "details": "for Residual efficacy: Example 7, oral capsule 35 mg/kg", "procedure": "(§1) The therapeutic (knockdown) and residual efficacy of 5, administered orally at a point dose of 25 mg/kg bodyweight, was evaluated against adult American dog tick (D. variabilis) infestations on dogs. Six beagle dogs were allocated to one of two treatment groups, an untreated control group (n=4 dogs) or 5 group (n=2 dogs). On Day 0, two dogs were treated with 5 via oral gavage (25 mg/ml 5, dissolved in a solution of 55% polyethylene glycol-300, 35% propylene glycol and 10% water) at a point dose of approximately 25 mg/kg. Twenty-four (24) hours before treatment (Day −1), all dogs were infested with approximately 50 unfed, adult-stage American dog ticks (D. variabilis; approximately 50% male and 50% female). On Day 1, approximately 24 hours after treatment, thumb counts were conducted to determine the number and life-status classification of ticks present on all dogs (normal, moribund or dead; attached or detached). Ticks were not removed during thumb counts. On Day 2, approximately 48 hours after treatment, all ticks were classified and removed from dogs. Dogs were re-infested with approximately 50 unfed, adult D. variabilis ticks on Days 5 and 12, with tick classification, counts and removal on Days 7 and 14 (approximately 48 hours after each infestation).\n(§2) The therapeutic (knockdown) and residual efficacy of 7 and 8, each administered orally at a point dose of 25 mg/kg bodyweight, was evaluated against adult tick (Dermacentor variabilis and Rhipicephalus sanguineus) and adult cat flea (Ctenocephalides felis) infestations on dogs. Twelve (12) male and female beagle dogs were randomly allocated to one of three treatment groups, four (4) dogs per group: Untreated control; 7, 25 mg/kg; and 8, 25 mg/kg. On Day −1, all dogs were infested with approximately 50 unfed, adult D. variabilis ticks. On Day 0, dogs were orally administered gelatin capsules containing either 7 or 8 (50% technical active, 47% microcrystalline cellulose and 3% croscarmellose sodium, w/w). Ticks were counted and classified, but not removed, on all dogs on Day 1, approximately 24 hours after treatment. On Day 2, approximately 48 hours after treatment, ticks were counted, classified and removed. Dogs were re-infested with the same number of D. variabilis ticks on Days 5, 12, 19 and 28 and tick counts were conducted on Days 7, 14, 21 and 30.\n(§3) The therapeutic (knockdown) and residual efficacy of 7, administered orally at a point dose of 35 mg/kg bodyweight, was evaluated against adult tick (Dermacentor variabilis and Rhipicephalus sanguineus) and adult cat flea (Ctenocephalides felis) infestations on dogs. Twelve (12) male and female beagle dogs were allocated to either an untreated, negative control group or 7 group (n=6 dogs per group). Dogs were infested with approximately 50 unfed, adult D. variabilis ticks on Days −1, 5, 12, 19, 28, 35 and 42. On Day 0, dogs were orally administered gelatin capsules containing Compound 8194 (50% technical active, 47% microcrystalline cellulose and 3% croscarmellose sodium, w/w) at a point dose of 35 mg/kg. D. variabilis tick counts and classification were conducted on Day 1 (thumb count, approximately 24 hours after treatment) and Days 2, 7, 14, 21, 30, 37 and 44 (approximately 48 hours after treatment). Following removal of D. variabilis ticks on Day 30, all dogs were co-infested with approximately 50 unfed, adult brown dog ticks (R. sanguineus) and approximately 100 unfed, adult cat fleas (C. felis). Brown dog tick and cat flea counts were conducted on Day 32 (approximately 48 hours after infestation). GM percent efficacy of treatments against both tick species and fleas was calculated using the following formula: […]\nThe therapeutic (knockdown) and residual efficacy of S-enantiomer, 9, administered orally at a point dose of 25 mg/kg bodyweight, was evaluated against adult tick (Dermacentor variabilis and Rhipicephalus sanguineus) and adult cat flea (Ctenocephalides felis) infestations on dogs. […]"}, "[2]": {"system": "brown dog tick (Rhipicephalus sanguineus)", "experiment": "Residual efficacy against adult brown dog tick infestations on dogs, oral", "type": "in vivo", "details": "Day 32", "procedure": "(§4) Immediately following removal of D. variabilis ticks on Day 30, dogs were co-infested with approximately 50 adult, unfed brown dog ticks (R. sanguineus, approximately 50% male and 50% female) and approximately 100 adult, unfed cat fleas (C. felis, approximately 50% male and 50% female). Ticks and fleas were counted and removed on Day 32 (approximately 48 hours after infestation). GM percent efficacy of treatments against both tick species and fleas was calculated using the following formula: […]\nas §3\n(§5) The therapeutic (knockdown) and residual efficacy of S-enantiomer, 9, administered orally at a point dose of 25 mg/kg bodyweight, was evaluated against adult tick (Dermacentor variabilis and Rhipicephalus sanguineus) and adult cat flea (Ctenocephalides felis) infestations on dogs. Twelve (12) male and female beagle dogs were allocated to either an untreated, negative control group or 9 group (n=6 dogs per group). Dogs were infested with approximately 50 unfed, adult D. variabilis ticks on Days −1, 5, 12, 19, and 28. On Day 0, dogs were orally administered gelatin capsules containing 9 (50% technical active, 47% microcrystalline cellulose and 3% croscarmellose sodium, w/w) at a point dose of 25 mg/kg. D. variabilis tick counts and classification were conducted on Day 1 (thumb count, approximately 24 hours after treatment) and Days 2, 7, 14, 21 and 30 (approximately 48 hours after treatment). Following removal of D. variabilis ticks on Day 30, all dogs were co-infested with approximately 50 unfed, adult brown dog ticks (R. sanguineus) and approximately 100 unfed, adult cat fleas (C. felis). Brown dog tick and cat flea counts were conducted on Day 32 (approximately 48 hours after infestation). GM percent efficacy of treatments against both tick species and fleas was calculated using the following formula: […]"}, "[3]": {"system": "cat flea (Ctenocephalides felis)", "experiment": "Residual efficacy against adult cat flea infestations on dogs, oral", "type": "in vivo", "details": "Day 32", "procedure": "as §4, §3, §5"}, "[4]": {"experiment": "Tolerability of oral treatment in dogs", "type": "in vivo, dog", "procedure": "as §1, §2\nThe therapeutic (knockdown) and residual efficacy of 7, administered orally at a point dose of 35 mg/kg bodyweight, was evaluated against adult tick (Dermacentor variabilis and Rhipicephalus sanguineus) and adult cat flea (Ctenocephalides felis) infestations on dogs. Twelve (12) male and female beagle dogs were allocated to either an untreated, negative control group or 7 group (n=6 dogs per group). Dogs were infested with approximately 50 unfed, adult D. variabilis ticks on Days −1, 5, 12, 19, 28, 35 and 42. On Day 0, dogs were orally administered gelatin capsules containing Compound 8194 (50% technical active, 47% microcrystalline cellulose and 3% croscarmellose sodium, w/w) at a point dose of 35 mg/kg. […] GM percent efficacy of treatments against both tick species and fleas was calculated using the following formula: […]\nThe therapeutic efficacy and speed of kill of 7, administered orally at a point dose of 20 mg/kg bodyweight, was evaluated against adult cat flea (Ctenocephalides felis) infestations on dogs. […]"}, "[5]": {"details": "Table 2, oral capsule 25 mg/kg, Day 2"}, "[6]": {"details": "Table 2, oral capsule 25 mg/kg, Day 7"}, "[7]": {"details": "Table 2, oral capsule 25 mg/kg, Day 14"}, "[8]": {"details": "Table 2, oral capsule 25 mg/kg, Day 21"}, "[9]": {"details": "Table 2, oral capsule 25 mg/kg, Day 30"}, "[10]": {"details": "Table 3, oral capsule 35 mg/kg, Day 2"}, "[11]": {"details": "Table 3, oral capsule 35 mg/kg, Day 7"}, "[12]": {"details": "Table 3, oral capsule 35 mg/kg, Day 14"}, "[13]": {"details": "Table 3, oral capsule 35 mg/kg, Day 21"}, "[14]": {"details": "Table 3, oral capsule 35 mg/kg, Day 30"}, "[15]": {"details": "Table 3, oral capsule 35 mg/kg, Day 37"}, "[16]": {"details": "Table 3, oral capsule 35 mg/kg, Day 44"}, "[17]": {"details": "Example 7, oral capsule 35 mg/kg"}},
  "data": [
    {"smiles": "Cc1cc(C2=NOC(c3cc(Cl)c(Cl)c(Cl)c3)(C(F)(F)F)C2)ccc1C(=O)NCc1ccc2c(c1)B(O)OC2(C)C", "note": "(centres unmarked) [Compound 7, N-((1-Hydroxy-3,3-dimethyl-1,3-dihydrobenzo[c][1,2]oxaborol-6-yl)methyl)-2-methyl-4-(5-(3,4,5-trichlorophenyl)-5-(trifluoromethyl)-4,5-dihydroisoxazol-3-yl)benzamide]", "values": [
      {"measurement": "continued residual efficacy", "setting": "[1]; Example 6, oral capsule 25 mg/kg, through at least 14 days", "result": 100, "unit": "%"},
      {"measurement": "Residual efficacy", "setting": "[1]; through Day 14", "result": "> 99", "unit": "%"},
      {"measurement": "Residual efficacy", "setting": "[1]; through Day 37", "result": "> 95", "unit": "%"},
      {"measurement": "Geometric mean group live parasite counts", "setting": "[1]; Table 2, oral capsule 25 mg/kg, Day 1", "result": 0.0},
      {"measurement": "% efficacy", "setting": "[1]; [5]", "result": "(100) %"},
      {"measurement": "Geometric mean group live parasite counts", "setting": "[1]; [5]", "result": 0.0},
      {"measurement": "% efficacy", "setting": "[1]; [6]", "result": "(100) %"},
      {"measurement": "Geometric mean group live parasite counts", "setting": "[1]; [6]", "result": 0.0},
      {"measurement": "% efficacy", "setting": "[1]; [7]", "result": "(100) %"},
      {"measurement": "Geometric mean group live parasite counts", "setting": "[1]; [7]", "result": 0.0},
      {"measurement": "% efficacy", "setting": "[1]; [8]", "result": "(99.3) %"},
      {"measurement": "Geometric mean group live parasite counts", "setting": "[1]; [8]", "result": 0.3},
      {"measurement": "% efficacy", "setting": "[1]; [9]", "result": "(73.2) %"},
      {"measurement": "Geometric mean group live parasite counts", "setting": "[1]; [9]", "result": 9.5},
      {"measurement": "Geometric mean group live parasite counts", "setting": "[1]; Table 3, oral capsule 35 mg/kg, Day 1", "result": 0.1},
      {"measurement": "% efficacy", "setting": "[1]; [10]", "result": "(100) %"},
      {"measurement": "Geometric mean group live parasite counts", "setting": "[1]; [10]", "result": 0.0},
      {"measurement": "% efficacy", "setting": "[1]; [11]", "result": "(99.1) %"},
      {"measurement": "Geometric mean group live parasite counts", "setting": "[1]; [11]", "result": 0.3},
      {"measurement": "% efficacy", "setting": "[1]; [12]", "result": "(100) %"},
      {"measurement": "Geometric mean group live parasite counts", "setting": "[1]; [12]", "result": 0.0},
      {"measurement": "% efficacy", "setting": "[1]; [13]", "result": "(98.4) %"},
      {"measurement": "Geometric mean group live parasite counts", "setting": "[1]; [13]", "result": 0.2},
      {"measurement": "% efficacy", "setting": "[1]; [14]", "result": "(98.7) %"},
      {"measurement": "Geometric mean group live parasite counts", "setting": "[1]; [14]", "result": 0.4},
      {"measurement": "% efficacy", "setting": "[1]; [15]", "result": "(95.7) %"},
      {"measurement": "Geometric mean group live parasite counts", "setting": "[1]; [15]", "result": 1.2},
      {"measurement": "% efficacy", "setting": "[1]; [16]", "result": "(67.2) %"},
      {"measurement": "Geometric mean group live parasite counts", "setting": "[1]; [16]", "result": 9.3},
      {"measurement": "Residual efficacy", "setting": "[2]; [17]", "result": 98.7, "unit": "%"},
      {"measurement": "Geometric mean group live parasite counts", "setting": "[2]; Table 2, oral capsule 25 mg/kg", "result": 4.8},
      {"measurement": "Residual efficacy", "setting": "[3]; [17]", "result": 100, "unit": "%"},
      {"measurement": "Geometric mean group live parasite counts", "setting": "[3]; Table 2, oral capsule 25 mg/kg", "result": 0.9},
      {"measurement": "tolerability", "setting": "[4]; Example 6, oral capsule 25 mg/kg", "result": "well tolerated"},
      {"measurement": "tolerability", "setting": "[4]; [17]", "result": "well tolerated"}
    ]}
  ]
}
